Laboratory results as given in PubChem BioAssay (NCI).
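Step 1: Grow cells in 96-well plates. Step 2: Expose to compound for 48 hours at 5 concentrations. Step 3: Interpolate endpoints linearly; if unreached, use highest concentration. GI50 = concentration required for 50% inhibition of growth. TGI: concentration producing complete growth inhibition.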

Key:
Assay in all cases: NCI anticancer screen, dose series, 48 h
RPMI-8226 leukemia = test system: RPMI-8226 leukemia
CAKI-1 renal = test system: CAKI-1 renal
U251 CNS = test system: U251 CNS
CCRF-CEM leukemia = test system: CCRF-CEM leukemia
DMS 273 small cell lung = test system: DMS 273 small cell lung
NCI-H460 lung = test system: NCI-H460 lung
SN12C renal = test system: SN12C renal
HT29 colon = test system: HT29 colon
OVCAR-8 ovarian = test system: OVCAR-8 ovarian
IGROV1 ovarian = test system: IGROV1 ovarian
A549 NSCLC = test system: A549 NSCLC
SK-MEL-2 melanoma = test system: SK-MEL-2 melanoma
SK-MEL-5 melanoma = test system: SK-MEL-5 melanoma
HOP-92 NSCLC = test system: HOP-92 NSCLC
MALME-3M melanoma = test system: MALME-3M melanoma
HCT-116 colon = test system: HCT-116 colon
KM20L2 colon = test system: KM20L2 colon
A498 renal = test system: A498 renal
KM12 colon = test system: KM12 colon
786-0 renal = test system: 786-0 renal
OVCAR-4 ovarian = test system: OVCAR-4 ovarian
M19-MEL melanoma = test system: M19-MEL melanoma
DLD-1 colon = test system: DLD-1 colon
NCI-H23 lung = test system: NCI-H23 lung
LXFL 529 NSCLC = test system: LXFL 529 NSCLC
HCC-2998 colon = test system: HCC-2998 colon
SW-620 colon = test system: SW-620 colon
SF-268 CNS = test system: SF-268 CNS
NCI-H226 lung = test system: NCI-H226 lung
LOX IMVI melanoma = test system: LOX IMVI melanoma
TK-10 renal = test system: TK-10 renal
DMS 114 small cell lung = test system: DMS 114 small cell lung
SK-OV-3 ovarian = test system: SK-OV-3 ovarian
M14 melanoma = test system: M14 melanoma
RXF 393 renal = test system: RXF 393 renal
HOP-62 NSCLC = test system: HOP-62 NSCLC
COLO 205 colon = test system: COLO 205 colon
UACC-62 melanoma = test system: UACC-62 melanoma
NCI-H522 lung = test system: NCI-H522 lung
EKVX NSCLC = test system: EKVX NSCLC
SNB-19 CNS = test system: SNB-19 CNS
SR leukemia = test system: SR leukemia
OVCAR-5 ovarian = test system: OVCAR-5 ovarian
OVCAR-3 ovarian = test system: OVCAR-3 ovarian
UACC-257 melanoma = test system: UACC-257 melanoma
SNB-75 CNS = test system: SNB-75 CNS
UO-31 renal = test system: UO-31 renal
SF-539 CNS = test system: SF-539 CNS
MOLT-4 leukemia = test system: MOLT-4 leukemia
SF-295 CNS = test system: SF-295 CNS
HL-60(TB) leukemia = test system: HL-60(TB) leukemia
ACHN renal = test system: ACHN renal
HOP-18 NSCLC = test system: HOP-18 NSCLC
K-562 leukemia = test system: K-562 leukemia
SK-MEL-28 melanoma = test system: SK-MEL-28 melanoma
SNB-78 CNS = test system: SNB-78 CNS
RXF-631 renal = test system: RXF-631 renal
HCT-15 colon = test system: HCT-15 colon
XF 498 CNS = test system: XF 498 CNS

In the case of `Oc1ccc(Br)cc1C=Nc1ccc(Oc2ccc(N=Cc3cc(Br)ccc3O)cc2)cc1`, the TGI (RPMI-8226 leukemia) is reported as > 19.6 µM, the TGI (CAKI-1 renal) is reported as > 19.6 µM and the TGI (U251 CNS) is reported as > 19.6 µM. The TGI (CCRF-CEM leukemia) was > 19.6 µM, the TGI (DMS 273 small cell lung) was > 19.6 µM and the TGI (NCI-H460 lung) was > 19.6 µM. The TGI (SN12C renal) was > 19.6 µM, the TGI (HT29 colon) was > 19.6 µM and the TGI (OVCAR-8 ovarian) was > 19.6 µM. For the same molecule, the TGI (IGROV1 ovarian) was > 19.6 µM, the TGI (A549 NSCLC) was > 19.6 µM and the TGI (SK-MEL-2 melanoma) was > 19.6 µM. The TGI (SK-MEL-5 melanoma) was > 19.6 µM, the TGI (HOP-92 NSCLC) was > 19.6 µM and the TGI (MALME-3M melanoma) was > 19.6 µM. For the same molecule, the TGI (HCT-116 colon) was > 19.6 µM, the TGI (KM20L2 colon) was > 19.6 µM and the TGI (A498 renal) was > 19.6 µM. For the same molecule, the TGI (KM12 colon) was > 19.6 µM, the TGI (786-0 renal) was > 19.6 µM and the TGI (OVCAR-4 ovarian) was > 19.6 µM. The TGI (M19-MEL melanoma) was > 19.6 µM, the TGI (DLD-1 colon) was > 19.6 µM and the TGI (NCI-H23 lung) was > 19.6 µM. For the same molecule, the TGI (LXFL 529 NSCLC) was > 19.6 µM, the TGI (HCC-2998 colon) was > 19.6 µM and the TGI (SW-620 colon) was > 19.6 µM. The TGI (SF-268 CNS) was > 19.6 µM, the TGI (NCI-H226 lung) was > 19.6 µM and the TGI (LOX IMVI melanoma) was > 19.6 µM. For the same molecule, the TGI (TK-10 renal) was > 19.6 µM, the TGI (DMS 114 small cell lung) was > 19.6 µM and the TGI (SK-OV-3 ovarian) was > 19.6 µM. The TGI (M14 melanoma) was > 19.6 µM, the TGI (RXF 393 renal) was > 19.6 µM and the TGI (HOP-62 NSCLC) was > 19.6 µM. For the same molecule, the TGI (COLO 205 colon) was > 19.6 µM, the TGI (UACC-62 melanoma) was > 19.6 µM and the TGI (NCI-H522 lung) was > 19.6 µM. The TGI (EKVX NSCLC) was > 19.6 µM, the TGI (SNB-19 CNS) was > 19.6 µM and the TGI (SR leukemia) was > 19.6 µM. The TGI (OVCAR-5 ovarian) was > 19.6 µM, the TGI (OVCAR-3 ovarian) was > 19.6 µM and the TGI (UACC-257 melanoma) was > 19.6 µM. The TGI (SNB-75 CNS) was > 19.6 µM, the TGI (UO-31 renal) was > 19.6 µM and the TGI (SF-539 CNS) was > 19.6 µM. The TGI (MOLT-4 leukemia) was > 19.6 µM, the TGI (SF-295 CNS) was > 19.6 µM and the TGI (HL-60(TB) leukemia) was > 19.6 µM. The TGI (ACHN renal) was > 19.6 µM, the TGI (HOP-18 NSCLC) was > 19.6 µM and the TGI (K-562 leukemia) was > 19.6 µM. For the same molecule, the TGI (SK-MEL-28 melanoma) was > 19.6 µM.
`Cc1nsc2cc(Cl)n(C)c(=O)c12` was tested, and the TGI (RPMI-8226 leukemia) was > 100 µM, the TGI (CAKI-1 renal) was > 100 µM and the TGI (U251 CNS) was > 100 µM. For the same molecule, the TGI (CCRF-CEM leukemia) was > 100 µM, the TGI (DMS 273 small cell lung) was > 100 µM and the TGI (NCI-H460 lung) was > 100 µM. For the same molecule, the TGI (SN12C renal) was > 100 µM, the TGI (HT29 colon) was > 100 µM and the TGI (OVCAR-8 ovarian) was > 100 µM. For the same molecule, the TGI (IGROV1 ovarian) was > 100 µM, the TGI (A549 NSCLC) was > 100 µM and the TGI (SK-MEL-2 melanoma) was > 100 µM. For the same molecule, the TGI (SK-MEL-5 melanoma) was > 100 µM, the TGI (HOP-92 NSCLC) was > 100 µM and the TGI (MALME-3M melanoma) was > 100 µM. For the same molecule, the TGI (HCT-116 colon) was > 100 µM, the TGI (KM20L2 colon) was > 100 µM and the TGI (SNB-78 CNS) was > 100 µM. The TGI (A498 renal) was > 100 µM, the TGI (KM12 colon) was > 100 µM and the TGI (786-0 renal) was > 100 µM. For the same molecule, the TGI (OVCAR-4 ovarian) was > 100 µM, the TGI (M19-MEL melanoma) was > 100 µM and the TGI (DLD-1 colon) was > 100 µM. The TGI (NCI-H23 lung) was > 100 µM, the TGI (RXF-631 renal) was > 100 µM and the TGI (LXFL 529 NSCLC) was > 100 µM. For the same molecule, the TGI (HCC-2998 colon) was > 100 µM, the TGI (SW-620 colon) was > 100 µM and the TGI (SF-268 CNS) was > 100 µM. For the same molecule, the TGI (NCI-H226 lung) was > 100 µM, the TGI (LOX IMVI melanoma) was > 100 µM and the TGI (HCT-15 colon) was > 100 µM. The TGI (TK-10 renal) was > 100 µM, the TGI (DMS 114 small cell lung) was > 100 µM and the TGI (SK-OV-3 ovarian) was > 100 µM. For the same molecule, the TGI (M14 melanoma) was > 100 µM, the TGI (RXF 393 renal) was > 100 µM and the TGI (HOP-62 NSCLC) was > 100 µM. For the same molecule, the TGI (COLO 205 colon) was > 100 µM, the TGI (NCI-H522 lung) was 69.3 µM and the TGI (EKVX NSCLC) was > 100 µM. For the same molecule, the TGI (SNB-19 CNS) was > 100 µM, the TGI (SR leukemia) was > 100 µM and the TGI (XF 498 CNS) was > 100 µM. For the same molecule, the TGI (OVCAR-5 ovarian) was > 100 µM, the TGI (OVCAR-3 ovarian) was > 100 µM and the TGI (UACC-257 melanoma) was > 100 µM. The TGI (SNB-75 CNS) was > 100 µM, the TGI (UO-31 renal) was > 100 µM and the TGI (SF-539 CNS) was > 100 µM. For the same molecule, the TGI (MOLT-4 leukemia) was > 100 µM, the TGI (HL-60(TB) leukemia) was > 100 µM and the TGI (ACHN renal) was > 100 µM. The TGI (K-562 leukemia) was > 100 µM and the TGI (SK-MEL-28 melanoma) was > 100 µM.
`O=C(N/N=C/c1cc(Cl)cc(Cl)c1[O-])c1ccccc1O.O=C(N/N=C/c1cc(Cl)cc(Cl)c1[O-])c1ccccc1O.[Mn+2]` gave a TGI (CAKI-1 renal) of 4.33 µM, a TGI (U251 CNS) of 5.52 µM and a TGI (OVCAR-8 ovarian) of 2.3 µM. It also gave a GI50 (A549 NSCLC) of 0.377 µM, a TGI (A549 NSCLC) of 11.6 µM and a GI50 (SK-MEL-2 melanoma) of 0.285 µM. For the same molecule, the TGI (SK-MEL-2 melanoma) was 11.3 µM, the TGI (SK-MEL-5 melanoma) was 2.63 µM and the GI50 (HOP-92 NSCLC) was 0.429 µM. The TGI (HOP-92 NSCLC) was 3.33 µM, the GI50 (MALME-3M melanoma) was 1.34 µM and the TGI (MALME-3M melanoma) was 7.79 µM. For the same molecule, the GI50 (HCT-116 colon) was 0.423 µM, the TGI (HCT-116 colon) was 13.8 µM and the GI50 (KM20L2 colon) was 2.78 µM. The GI50 (KM12 colon) was 0.448 µM, the TGI (KM12 colon) was 15.9 µM and the TGI (OVCAR-4 ovarian) was 1.58 µM. The GI50 (NCI-H23 lung) was 0.301 µM, the TGI (NCI-H23 lung) was 6.31 µM and the TGI (HCC-2998 colon) was 13.5 µM. For the same molecule, the TGI (SW-620 colon) was 17.7 µM, the TGI (SF-268 CNS) was 11.5 µM and the TGI (NCI-H226 lung) was 6.59 µM. For the same molecule, the TGI (LOX IMVI melanoma) was 14.1 µM, the TGI (HCT-15 colon) was 14.1 µM and the TGI (TK-10 renal) was 16.2 µM. For the same molecule, the TGI (SK-OV-3 ovarian) was 3.58 µM, the TGI (M14 melanoma) was 2.51 µM and the TGI (RXF 393 renal) was 5.7 µM. It also gave a TGI (UACC-62 melanoma) of 0.804 µM, a TGI (NCI-H522 lung) of 0.737 µM and a GI50 (EKVX NSCLC) of 0.861 µM. For the same molecule, the TGI (EKVX NSCLC) was 11.2 µM, the TGI (SNB-19 CNS) was 16.1 µM and the TGI (SR leukemia) was 0.832 µM. For the same molecule, the TGI (OVCAR-5 ovarian) was 17.4 µM, the TGI (OVCAR-3 ovarian) was 1.02 µM and the TGI (UACC-257 melanoma) was 11.9 µM. The TGI (SNB-75 CNS) was 22.9 µM, the TGI (UO-31 renal) was 11.1 µM and the GI50 (SF-539 CNS) was 0.459 µM. The TGI (SF-539 CNS) was 4.51 µM, the GI50 (MOLT-4 leukemia) was 0.289 µM and the TGI (MOLT-4 leukemia) was 14.8 µM. The TGI (SF-295 CNS) was 11.8 µM, the TGI (HL-60(TB) leukemia) was 0.404 µM and the TGI (ACHN renal) was 11.9 µM. It also gave a TGI (K-562 leukemia) of 17.2 µM and a TGI (SK-MEL-28 melanoma) of 12.1 µM.
